# In patent publication US10040766B2, “Ubiquitination inhibitors” (Rigel Pharmaceuticals, Inc., priority 2014, dated 2018):
# Like-named read-outs stand apart in the source and are kept apart here.
# Columns and labels:
# [1] = tested on: lung tumor cell line A549; assay: Inhibition of tumor cell growth, A549; assay type: cell-based
# [2] = tested on: fibrosarcoma HT1080; assay: Inhibition of tumor cell growth, HT1080; assay type: cell-based
# [3] = biological target: Cks1-Skp2 protein-protein interaction (Homo sapiens, UniProt P61024+Q13309); assay: Cks1-Skp2 protein-protein interaction ELISA; assay type: binding
# Cks1-Skp2 protein-protein interaction, sequence (P61024 whole entry): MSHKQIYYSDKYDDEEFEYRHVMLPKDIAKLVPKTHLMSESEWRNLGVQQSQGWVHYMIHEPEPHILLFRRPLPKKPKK
# Cks1-Skp2 protein-protein interaction, sequence (Q13309 whole entry): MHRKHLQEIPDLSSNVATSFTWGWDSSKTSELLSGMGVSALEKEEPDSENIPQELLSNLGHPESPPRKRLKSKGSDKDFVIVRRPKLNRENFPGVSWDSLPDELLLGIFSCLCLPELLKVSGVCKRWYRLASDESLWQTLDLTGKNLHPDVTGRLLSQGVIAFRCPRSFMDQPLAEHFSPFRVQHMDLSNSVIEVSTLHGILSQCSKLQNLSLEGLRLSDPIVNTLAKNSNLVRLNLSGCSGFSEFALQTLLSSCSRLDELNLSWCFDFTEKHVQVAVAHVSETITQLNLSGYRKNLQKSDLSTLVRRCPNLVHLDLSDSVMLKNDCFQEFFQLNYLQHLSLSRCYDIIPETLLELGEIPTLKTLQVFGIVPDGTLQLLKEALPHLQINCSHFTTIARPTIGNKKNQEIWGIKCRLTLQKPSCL
# Source text: In vitro binding of Skp2 to Cks1 was established in an ELISA assay format, with Cks1 protein immobilized on a 384-well plate and binding of Skp1/Skp2 to Cks1 detected by anti-Skp2 immunoreaction.
# [4] = ELISA, Cks1 immobilized, Skp1/Skp2 binding detected by anti-Skp2, read-out: Cks1-Skp2 (μM), potency in the interaction assay
# [5] = Table 3, read-out: IC50 Cks1-Skp2
# [6] = sulfonamide analogues, Table 2, read-out: Potency in the Cks1-Skp2 interaction assay
Molecule,IC50 ([1]; Homo sapiens) [nM],"IC50 ([2]; Homo sapiens, HT-1080) [nM]","IC50 [3, 4] [µM]","IC50 [3, 5] [µM]","IC50 [3, 6] [µM]",IC50 [1] [nM],IC50 [2] [nM]
"Cc1ccc(S(=O)(=O)Nc2ccc(-c3ccco3)c3cccnc23)cc1 [Compound 5, N-(5-(furan-2-yl)quinolin-8-yl)-4-methylbenzenesulfonamide]",26000,9780,0.55,0.55,,,
"O=S(=O)(Nc1ccc(-c2ccccc2)c2cccnc12)C1CC1 [Compound 16, N-(5-phenylquinolin-8-yl)cyclopropanesulfonamide]",,,,,12.1,,
"CS(=O)(=O)Nc1ccc(-c2ccccc2)c2cccnc12 [Compound 15, N-(5-phenylquinolin-8-yl)methanesulfonamide]",,,,,2.2,,
4-methoxy-N-(5-(pyridin-3-yl)quinolin-8-yl)benzenesulfonamide [Compound 29],,,,2.45,2.45,3060,1320
"Cc1ccc(S(=O)(=O)Nc2ccc(-c3ccsc3)c3cccnc23)cc1 [Compound 7, 4-methyl-N-(5-(thiophen-3-yl)quinolin-8-yl)benzenesulfonamide]",2360,640,5.54,5.54,,,
"Cc1ccc(S(=O)(=O)Nc2ccc(-c3cc4ccccc4s3)c3cccnc23)cc1 [Compound 8, N-(5-(benzo[b]thiophen-2-yl)quinolin-8-yl)-4-methylbenzenesulfonamide]",390,150,7.84,7.84,,,
"COc1ccc(Oc2cc(NS(=O)(=O)c3ccc(C)cc3)c3ncccc3c2)cc1 [Compound 13, N-(6-(4-methoxyphenoxy)quinolin-8-yl)-4-methylbenzenesulfonamide]",,,1.15,1.15,,4090,740
4-methoxy-N-(5-(pyridin-4-yl)quinolin-8-yl)benzenesulfonamide [Compound 23],,,,0.58,0.58,1240,440
"Cc1ccc(S(=O)(=O)Nc2ccc(Br)c3cccnc23)cc1 [Compound 1, N-(5-bromoquinolin-8-yl)-4-methylbenzenesulfonamide]",,,0.84,,,,
"Cc1ccc(S(=O)(=O)Nc2cc(Oc3cccc(C#N)c3)cc3cccnc23)cc1 [Compound 14, N-(6-(3-cyanophenoxy)quinolin-8-yl)-4-methylbenzenesulfonamide]",,,1.74,1.74,,6480,6830
"Cc1ccc(S(=O)(=O)Nc2cc(Oc3cc(F)cc(F)c3)cc3cccnc23)cc1 [Compound 12, N-(6-(3,5-difluorophenoxy)quinolin-8-yl)-4-methylbenzenesulfonamide]",,,3.57,3.57,,4110,80
"Cc1ccc(S(=O)(=O)Nc2ccc(-c3cccnc3)c3cccnc23)cc1 [Compound 6, 4-methyl-N-(5-(pyridin-3-yl)quinolin-8-yl)benzenesulfonamide]",6020,4220,1.73,1.73,,,
"COc1ccc(S(=O)(=O)Nc2ccc(-c3ccccc3)c3cccnc23)cc1 [Compound 17, 4-methoxy-N-(5-phenylquinolin-8-yl)benzenesulfonamide]",,,,,8.02,,
"Cc1ccc(S(=O)(=O)Nc2ccc(-c3ccccc3)c3cccnc23)cc1 [Compound 4, 4-methyl-N-(5-phenylquinolin-8-yl)benzenesulfonamide]",2360,1640,0.54,0.54,,,

# Now from value to molecule:
IC50 ([1]; Homo sapiens) [nM],"IC50 ([2]; Homo sapiens, HT-1080) [nM]","IC50 [3, 4] [µM]","IC50 [3, 5] [µM]","IC50 [3, 6] [µM]",IC50 [1] [nM],IC50 [2] [nM],Molecule
,,,,7.16,,,"O=S(=O)(Nc1ccc(-c2cccnc2)c2cccnc12)C1CC1 [Compound 22, N-(5-(pyridin-3-yl)quinolin-8-yl)cyclopropanesulfonamide]"
5240,1070,,1.67,1.67,,,"O=S(=O)(Nc1ccc(-c2cccnc2)c2cccnc12)c1cccnc1 [Compound 25, N-(5-(pyridin-3-yl)quinolin-8-yl)pyridine-3-sulfonamide]"
,,,,2.2,,,"O=S(=O)(Nc1ccc(-c2ccccc2)c2cccnc12)c1cccnc1 [Compound 19, N-(5-phenylquinolin-8-yl)pyridine-3-sulfonamide]"
,,,,6.7,,,"O=S(=O)(Nc1ccc(-c2ccccc2)c2cccnc12)c1cccc(C(F)(F)F)c1 [Compound 18, N-(5-phenylquinolin-8-yl)-3-(trifluoromethyl)benzenesulfonamide]"
,,,,7.6,,,"CC(=O)Nc1ccc(S(=O)(=O)Nc2ccc(-c3ccccc3)c3cccnc23)cc1 [Compound 20, N-(4-(N-(5-phenylquinolin-8-yl)sulfamoyl)phenyl)acetamide]"
,,,,6.55,,,"CC(=O)Nc1ccc(S(=O)(=O)Nc2ccc(-c3ccncc3)c3cccnc23)cc1 [Compound 31, N-(4-(N-(5-(pyridin-4-yl)quinolin-8-yl)sulfamoyl)phenyl)acetamide]"
5880,1070,,1.21,1.21,,,"O=S(=O)(Nc1ccc(-c2ccncc2)c2cccnc12)c1cccnc1 [Compound 30, N-(5-(pyridin-4-yl)quinolin-8-yl)pyridine-3-sulfonamide]"
910,400,,0.17,0.17,,,"O=S(=O)(Nc1ccc(-c2cccnc2)c2cccnc12)c1cccc(C(F)(F)F)c1 [Compound 24, N-(5-(pyridin-3-yl)quinolin-8-yl)-3-(trifluoromethyl)benzenesulfonamide]"
,,,,10.9,,,"O=S(=O)(Nc1ccc(-c2ccncc2)c2cccnc12)C1CC1 [Compound 28, N-(5-(pyridin-4-yl)quinolin-8-yl)cyclopropanesulfonamide]"
,,,,14.5,,,"CC(=O)Nc1ccc(S(=O)(=O)Nc2ccc(-c3cccnc3)c3cccnc23)cc1 [Compound 26, N-(4-(N-(5-(pyridin-3-yl)quinolin-8-yl)sulfamoyl)phenyl)acetamide]"
,,,,15.1,,,"CS(=O)(=O)Nc1ccc(-c2cccnc2)c2cccnc12 [Compound 21, N-(5-(pyridin-3-yl)quinolin-8-yl)methanesulfonamide]"
